Data reported in patent US12371464B2, “Polypeptides and uses thereof” (MEDIMMUNE LIMITED, priority 2020, dated 2025).
Numbered stars: 1 amine (or outer) side, 2 acyl side, 3 side chain; on linkers, the order of the positions; unused ones are H or OH. Bridge positions count the residues as written; N and C are the ends. Square brackets hold non-standard residues; d marks the D form. Side chains are listed from the residue outwards. Peptide text beside a SMILES is read from it. * marks the point of attachment. C18 diacid = O=C(O)CCCCCCCCCCCCCCCCC(=O)*; γGlu = O=C(O)[C@H](CCC(=O)[*:2])N[*:1]; αMeF = C[C@](N)(Cc1ccccc1)C(=O)O

test: Thioflavin T fibrillation assay; type: physicochemical; conditions: 1 mg/mL in 25 mM sodium acetate buffer pH 4.0, 37° C., 6 days, orbital shaking; >144 h = no increase
Description: Peptide aggregation that form fibrils is an indication of physical instability. Fibril formation in solution poses a significant risk for the stability of injectable peptide drug products. Thioflavin T (ThT) fibrillation assay is a useful tool to assess the aggregation kinetics of a peptide or protein under accelerated and stressed conditions that can be used to forecast the long-term viability of a compound in solution. ThT can selectively bind amyloid fibrils and the resultant complex emits strong fluorescence signal at 482 nm when excited at 450 nm (Anal Biochem. 1989 March; 177 (2): 244-9). Monitoring of the change in fluorescence signal is an established method to study the fibril forming potential of peptides and proteins. ThT (purchased from Sigma Aldrich) stock solution is prepared by dissolving the ThT powder in Milli-Q water and filtered to obtain a 0.25 mM solution. The concentration of the solution is measured at 412 nm using an extinction coefficient of 36 mM-1 cm-1. Test peptides were dissolved at 1 mg/mL in 25 mM sodium acetate buffer pH 4.0. 100 μL aliquot of peptide solution and 5 μL aliquot of ThT solution were placed in a clear bottom black fluorescence 96-well plate. 5 replicates of each test samples were placed in the same row of the plate. Buffer was placed in control wells for baseline correction. All empty wells were filled with water to prevent evaporation. The plate was sealed with aluminium seal and placed in fluorescence plate reader and incubated for 6 days at 37° C. with intermittent orbital shaking at 500 to 750 rpm. The fluorescence intensity was measured every 30 min using excitation at 444 nm and emission at 480 nm. The fibril forming potential of the test peptides was determined by measuring the average time taken to detect an increase in baseline corrected fluorescence intensity.

Time taken to detect increase in fluorescence intensity, >144 h:
CC[C@H](C)[C@H](NC(=O)[C@@H]1CCCN1C(=O)CNC(=O)[C@](C)(Cc1ccccc1)NC(=O)[C@H](CC(N)=O)NC(=O)[C@H](CC(N)=O)NC(=O)[C@H](CO)NC(=O)[C@H](CO)NC(=O)[C@H](Cc1c[nH]cn1)NC(=O)[C@H](CCCNC(=N)N)NC(=O)[C@H](CC(C)C)NC(=O)[C@H](Cc1ccccc1)NC(=O)[C@H](CC(N)=O)NC(=O)[C@H](C)NC(=O)[C@H](CC(C)C)NC(=O)[C@H](CCCNC(=N)N)NC(=O)[C@H](CCC(N)=O)NC(=O)[C@@H](NC(=O)[C@H](C)NC(=O)[C@@H]1CSSC[C@H](NC(=O)[C@@H](N)CCCCNC(=O)CC[C@H](NC(=O)CC[C@H](NC(=O)CCCCCCCCCCCCCCCCC(=O)O)C(=O)O)C(=O)O)C(=O)N[C@@H](CC(N)=O)C(=O)N[C@@H]([C@@H](C)O)C(=O)N[C@@H](C)C(=O)N[C@@H]([C@@H](C)O)C(=O)N1)[C@@H](C)O)C(=O)N[C@@H](CC(C)C)C(=O)N1CCC[C@H]1C(=O)N1CCC[C@H]1C(=O)N[C@H](C(=O)N[C@@H](CCC(=O)O)C(=O)N[C@H](C(=O)NCC(=O)N[C@@H](CO)C(=O)N[C@@H](CC(N)=O)C(=O)N[C@H](C(=O)N[C@@H](Cc1ccc(O)cc1)C(N)=O)[C@@H](C)O)C(C)C)[C@@H](C)O [Peptide 18, K(γE-γE-C18diacid)[CNTATC]ATQRLANFLRHSSNN(αMePhe)GPILPPTEVGSNTY-amide] (H-K([γGlu-γGlu-C18 diacid])CNTATCATQRLANFLRHSSNN[αMeF]GPILPPTEVGSNTY-NH2; disulfide 2-7; N-terminus assumed)
CC[C@H](C)[C@H](NC(=O)[C@@H]1CCCN1C(=O)CNC(=O)[C@](C)(Cc1ccccc1)NC(=O)[C@H](CC(N)=O)NC(=O)[C@H](CC(N)=O)NC(=O)[C@H](CO)NC(=O)[C@H](CO)NC(=O)[C@H](Cc1c[nH]cn1)NC(=O)[C@H](CCCNC(=N)N)NC(=O)[C@H](CC(C)C)NC(=O)[C@H](Cc1ccccc1)NC(=O)[C@H](CC(N)=O)NC(=O)[C@H](C)NC(=O)[C@H](CC(C)C)NC(=O)[C@H](CCCNC(=N)N)NC(=O)[C@H](CCC(N)=O)NC(=O)[C@@H](NC(=O)[C@H](C)NC(=O)[C@@H]1CSSC[C@H](NC(=O)[C@@H](N)CCCCNC(=O)CC[C@H](NC(=O)CCCCCCCCCCCCCCCCC(=O)O)C(=O)O)C(=O)N[C@@H](CC(N)=O)C(=O)N[C@@H]([C@@H](C)O)C(=O)N[C@@H](C)C(=O)N[C@@H]([C@@H](C)O)C(=O)N1)[C@@H](C)O)C(=O)N[C@@H](CC(C)C)C(=O)N1CCC[C@H]1C(=O)N1CCC[C@H]1C(=O)N[C@H](C(=O)N[C@@H](CC(N)=O)C(=O)N[C@H](C(=O)NCC(=O)N[C@@H](CO)C(=O)N[C@@H](CC(N)=O)C(=O)N[C@H](C(=O)N[C@@H](Cc1ccc(O)cc1)C(N)=O)[C@@H](C)O)C(C)C)[C@@H](C)O [Peptide 19, K(γE-C18diacid)[CNTATC]ATQRLANFLRHSSNN(αMePhe)GPILPPTNVGSNTY-amide] (H-K([γGlu-C18 diacid])CNTATCATQRLANFLRHSSNN[αMeF]GPILPPTNVGSNTY-NH2; disulfide 2-7; N-terminus assumed)
CC[C@H](C)[C@H](NC(=O)[C@@H]1CCCN1C(=O)CNC(=O)[C@](C)(Cc1ccccc1)NC(=O)[C@H](CC(N)=O)NC(=O)[C@H](CC(N)=O)NC(=O)[C@H](CO)NC(=O)[C@H](CO)NC(=O)[C@H](Cc1c[nH]cn1)NC(=O)[C@@H](NC(=O)[C@H](CC(C)C)NC(=O)[C@H](Cc1ccccc1)NC(=O)[C@H](CC(N)=O)NC(=O)[C@H](C)NC(=O)[C@H](CC(C)C)NC(=O)[C@H](CCCNC(=N)N)NC(=O)[C@H](CCC(N)=O)NC(=O)[C@@H](NC(=O)[C@H](C)NC(=O)[C@@H]1CSSC[C@H](NC(=O)[C@@H](N)CCCCNC(=O)CC[C@H](NC(=O)CC[C@H](NC(=O)CCCCCCCCCCCCCCCCC(=O)O)C(=O)O)C(=O)O)C(=O)N[C@@H](CC(N)=O)C(=O)N[C@@H]([C@@H](C)O)C(=O)N[C@@H](C)C(=O)N[C@@H]([C@@H](C)O)C(=O)N1)[C@@H](C)O)C(C)C)C(=O)N[C@@H](CC(C)C)C(=O)N1CCC[C@H]1C(=O)N1CCC[C@H]1C(=O)N[C@H](C(=O)N[C@@H](CC(N)=O)C(=O)N[C@H](C(=O)NCC(=O)N[C@@H](CO)C(=O)N[C@@H](CCCNC(=N)N)C(=O)N[C@H](C(=O)N[C@@H](Cc1ccc(O)cc1)C(N)=O)[C@@H](C)O)C(C)C)[C@@H](C)O [Peptide 21, K(γE-γE-C18diacid)[CNTATC]ATQRLANFLVHSSNN(αMePhe)GPILPPTNVGSRTY-amide] (H-K([γGlu-γGlu-C18 diacid])CNTATCATQRLANFLVHSSNN[αMeF]GPILPPTNVGSRTY-NH2; disulfide 2-7; N-terminus assumed)
CC[C@H](C)[C@H](NC(=O)[C@@H]1CCCN1C(=O)CNC(=O)[C@](C)(Cc1ccccc1)NC(=O)[C@H](CC(N)=O)NC(=O)[C@H](CC(N)=O)NC(=O)[C@H](CO)NC(=O)[C@H](CO)NC(=O)[C@H](Cc1c[nH]cn1)NC(=O)[C@@H](NC(=O)[C@H](CC(C)C)NC(=O)[C@H](Cc1ccccc1)NC(=O)[C@H](CC(N)=O)NC(=O)[C@H](C)NC(=O)[C@H](CC(C)C)NC(=O)[C@H](CCCNC(=N)N)NC(=O)[C@H](CCC(N)=O)NC(=O)[C@@H](NC(=O)[C@H](C)NC(=O)[C@@H]1CSSC[C@H](NC(=O)[C@@H](N)CCCCNC(=O)CC[C@H](NC(=O)CC[C@H](NC(=O)CCCCCCCCCCCCCCCCC(=O)O)C(=O)O)C(=O)O)C(=O)N[C@@H](CC(N)=O)C(=O)N[C@@H]([C@@H](C)O)C(=O)N[C@@H](C)C(=O)N[C@@H]([C@@H](C)O)C(=O)N1)[C@@H](C)O)C(C)C)C(=O)N[C@@H](CC(C)C)C(=O)N1CCC[C@H]1C(=O)N1CCC[C@H]1C(=O)N[C@H](C(=O)N[C@@H](CCCNC(=N)N)C(=O)N[C@H](C(=O)NCC(=O)N[C@@H](CO)C(=O)N[C@@H](CC(N)=O)C(=O)N[C@H](C(=O)N[C@@H](Cc1ccc(O)cc1)C(N)=O)[C@@H](C)O)C(C)C)[C@@H](C)O [Peptide 24, K(γE-γE-C18diacid)[CNTATC]ATQRLANFLVHSSNN(αMePhe)GPILPPTRVGSNTY-amide] (H-K([γGlu-γGlu-C18 diacid])CNTATCATQRLANFLVHSSNN[αMeF]GPILPPTRVGSNTY-NH2; disulfide 2-7; N-terminus assumed)
